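The compound was tested at five concentrations on cells cultured in 96-well plates, with a 48-hour exposure period. GI50 = concentration required for 50% inhibition of growth. Definition used: TGI = concentration required for complete inhibition of growth.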
Experiments:
Experiment in all cases: NCI anticancer screen, dose series, 48 h
786-0 renal = tested on: 786-0 renal
A498 renal = tested on: A498 renal
A549 NSCLC = tested on: A549 NSCLC
ACHN renal = tested on: ACHN renal
BT-549 breast = tested on: BT-549 breast
CAKI-1 renal = tested on: CAKI-1 renal
CCRF-CEM leukemia = tested on: CCRF-CEM leukemia
COLO 205 colon = tested on: COLO 205 colon
DU-145 prostate = tested on: DU-145 prostate
EKVX NSCLC = tested on: EKVX NSCLC
HCC-2998 colon = tested on: HCC-2998 colon
HCT-116 colon = tested on: HCT-116 colon
HCT-15 colon = tested on: HCT-15 colon
HL-60(TB) leukemia = tested on: HL-60(TB) leukemia
HOP-62 NSCLC = tested on: HOP-62 NSCLC
HS 578T breast = tested on: HS 578T breast
HT29 colon = tested on: HT29 colon
IGROV1 ovarian = tested on: IGROV1 ovarian
K-562 leukemia = tested on: K-562 leukemia
KM12 colon = tested on: KM12 colon
LOX IMVI melanoma = tested on: LOX IMVI melanoma
M14 melanoma = tested on: M14 melanoma
MALME-3M melanoma = tested on: MALME-3M melanoma
MCF7 breast = tested on: MCF7 breast
MDA-MB-231 breast = tested on: MDA-MB-231 breast
MDA-MB-435 = tested on: MDA-MB-435
MOLT-4 leukemia = tested on: MOLT-4 leukemia
NCI-H226 lung = tested on: NCI-H226 lung
NCI-H23 lung = tested on: NCI-H23 lung
NCI-H460 lung = tested on: NCI-H460 lung
NCI-H522 lung = tested on: NCI-H522 lung
NCI/ADR-RES ovarian = tested on: NCI/ADR-RES ovarian
OVCAR-3 ovarian = tested on: OVCAR-3 ovarian
OVCAR-4 ovarian = tested on: OVCAR-4 ovarian
OVCAR-5 ovarian = tested on: OVCAR-5 ovarian
OVCAR-8 ovarian = tested on: OVCAR-8 ovarian
PC-3 prostate = tested on: PC-3 prostate
RPMI-8226 leukemia = tested on: RPMI-8226 leukemia
SF-268 CNS = tested on: SF-268 CNS
SF-295 CNS = tested on: SF-295 CNS
SF-539 CNS = tested on: SF-539 CNS
SK-MEL-2 melanoma = tested on: SK-MEL-2 melanoma
SK-MEL-28 melanoma = tested on: SK-MEL-28 melanoma
SK-MEL-5 melanoma = tested on: SK-MEL-5 melanoma
SK-OV-3 ovarian = tested on: SK-OV-3 ovarian
SN12C renal = tested on: SN12C renal
SNB-19 CNS = tested on: SNB-19 CNS
SNB-75 CNS = tested on: SNB-75 CNS
SR leukemia = tested on: SR leukemia
SW-620 colon = tested on: SW-620 colon
T-47D breast = tested on: T-47D breast
TK-10 renal = tested on: TK-10 renal
U251 CNS = tested on: U251 CNS
UACC-257 melanoma = tested on: UACC-257 melanoma
UACC-62 melanoma = tested on: UACC-62 melanoma
UO-31 renal = tested on: UO-31 renal

CCCCN1C=CCN(CCCC)C1
GI50 (786-0 renal): > 100 µM
TGI (786-0 renal): > 100 µM
GI50 (A498 renal): > 100 µM
TGI (A498 renal): > 100 µM
GI50 (A549 NSCLC): > 100 µM
TGI (A549 NSCLC): > 100 µM
GI50 (ACHN renal): 89.7 µM
TGI (ACHN renal): > 100 µM
GI50 (BT-549 breast): > 100 µM
TGI (BT-549 breast): > 100 µM
GI50 (CAKI-1 renal): > 100 µM
TGI (CAKI-1 renal): > 100 µM
GI50 (CCRF-CEM leukemia): > 100 µM
TGI (CCRF-CEM leukemia): > 100 µM
GI50 (COLO 205 colon): 28.9 µM
TGI (COLO 205 colon): > 100 µM
GI50 (DU-145 prostate): > 100 µM
TGI (DU-145 prostate): > 100 µM
GI50 (EKVX NSCLC): 18.5 µM
TGI (EKVX NSCLC): > 100 µM
GI50 (HCC-2998 colon): 34 µM
TGI (HCC-2998 colon): > 100 µM
GI50 (HCT-116 colon): 39 µM
TGI (HCT-116 colon): > 100 µM
GI50 (HCT-15 colon): > 100 µM
TGI (HCT-15 colon): > 100 µM
GI50 (HL-60(TB) leukemia): 21.2 µM
TGI (HL-60(TB) leukemia): 75.4 µM
GI50 (HOP-62 NSCLC): > 100 µM
TGI (HOP-62 NSCLC): > 100 µM
GI50 (HS 578T breast): 63.4 µM
TGI (HS 578T breast): > 100 µM
GI50 (HT29 colon): 61.4 µM
TGI (HT29 colon): > 100 µM
GI50 (IGROV1 ovarian): 66.4 µM
TGI (IGROV1 ovarian): > 100 µM
GI50 (K-562 leukemia): 32 µM
TGI (K-562 leukemia): > 100 µM
GI50 (KM12 colon): 35.8 µM
TGI (KM12 colon): > 100 µM
GI50 (LOX IMVI melanoma): 68.5 µM
TGI (LOX IMVI melanoma): > 100 µM
GI50 (M14 melanoma): 85.1 µM
TGI (M14 melanoma): > 100 µM
GI50 (MALME-3M melanoma): 21.2 µM
TGI (MALME-3M melanoma): 57.3 µM
GI50 (MCF7 breast): 57 µM
TGI (MCF7 breast): > 100 µM
GI50 (MDA-MB-231 breast): > 100 µM
TGI (MDA-MB-231 breast): > 100 µM
GI50 (MDA-MB-435): 33.8 µM
TGI (MDA-MB-435): > 100 µM
GI50 (MOLT-4 leukemia): 60.7 µM
TGI (MOLT-4 leukemia): > 100 µM
GI50 (NCI-H226 lung): > 100 µM
TGI (NCI-H226 lung): > 100 µM
GI50 (NCI-H23 lung): 63.8 µM
TGI (NCI-H23 lung): > 100 µM
GI50 (NCI-H460 lung): 47.5 µM
TGI (NCI-H460 lung): > 100 µM
GI50 (NCI-H522 lung): 52.5 µM
TGI (NCI-H522 lung): > 100 µM
GI50 (NCI/ADR-RES ovarian): > 100 µM
TGI (NCI/ADR-RES ovarian): > 100 µM
GI50 (OVCAR-3 ovarian): 23.8 µM
TGI (OVCAR-3 ovarian): 57.2 µM
GI50 (OVCAR-4 ovarian): 58.8 µM
TGI (OVCAR-4 ovarian): > 100 µM
GI50 (OVCAR-5 ovarian): > 100 µM
TGI (OVCAR-5 ovarian): > 100 µM
GI50 (OVCAR-8 ovarian): 61.7 µM
TGI (OVCAR-8 ovarian): > 100 µM
GI50 (PC-3 prostate): 37.7 µM
TGI (PC-3 prostate): > 100 µM
GI50 (RPMI-8226 leukemia): 23.6 µM
TGI (RPMI-8226 leukemia): 93.6 µM
GI50 (SF-268 CNS): 53 µM
TGI (SF-268 CNS): > 100 µM
GI50 (SF-295 CNS): 49.8 µM
TGI (SF-295 CNS): > 100 µM
GI50 (SF-539 CNS): > 100 µM
TGI (SF-539 CNS): > 100 µM
GI50 (SK-MEL-2 melanoma): 46.3 µM
TGI (SK-MEL-2 melanoma): > 100 µM
GI50 (SK-MEL-28 melanoma): 86.9 µM
TGI (SK-MEL-28 melanoma): > 100 µM
GI50 (SK-MEL-5 melanoma): 30.1 µM
TGI (SK-MEL-5 melanoma): > 100 µM
GI50 (SK-OV-3 ovarian): > 100 µM
TGI (SK-OV-3 ovarian): > 100 µM
GI50 (SN12C renal): 71.7 µM
TGI (SN12C renal): > 100 µM
GI50 (SNB-19 CNS): 46.4 µM
TGI (SNB-19 CNS): > 100 µM
GI50 (SNB-75 CNS): > 100 µM
TGI (SNB-75 CNS): > 100 µM
GI50 (SR leukemia): > 100 µM
TGI (SR leukemia): > 100 µM
GI50 (SW-620 colon): 70.1 µM
TGI (SW-620 colon): > 100 µM
GI50 (T-47D breast): 27.3 µM
TGI (T-47D breast): > 100 µM
GI50 (TK-10 renal): > 100 µM
TGI (TK-10 renal): > 100 µM
GI50 (U251 CNS): 32.2 µM
TGI (U251 CNS): > 100 µM
GI50 (UACC-257 melanoma): 22.8 µM
TGI (UACC-257 melanoma): 80.7 µM
GI50 (UACC-62 melanoma): 48.1 µM
TGI (UACC-62 melanoma): > 100 µM
GI50 (UO-31 renal): > 100 µM
TGI (UO-31 renal): > 100 µM

Source: PubChem BioAssay (NCI)
